Data: PubChem BioAssay AID1259407 (Chemical Carcinogenesis Research Information System (CCRIS), 2018)
Activity calls are given as the source filed them. The rule behind the calls is not given here.

System: CCRIS mutagenicity, Ames/micronucleus/aberration tests
Test: CCRIS mutagenicity studies
[1] = Test System: AMES SALMONELLA TYPHIMURIUM, Strain/Indicator: TA98, Metabolic Activation: NONE, Method: STANDARD PLATE
[2] = Test System: AMES SALMONELLA TYPHIMURIUM, Strain/Indicator: TA1535, Metabolic Activation: NONE, Method: STANDARD PLATE
[3] = Test System: AMES SALMONELLA TYPHIMURIUM, Strain/Indicator: TA1537, Metabolic Activation: NONE, Method: STANDARD PLATE
[4] = Test System: MOUSE LYMPHOMA, Strain/Indicator: L5178Y (TK+/TK-), Metabolic Activation: RAT, LIVER, S-9, AROCLOR 1254, Method: SUSPENSION/PLATE
[5] = Test System: AMES SALMONELLA TYPHIMURIUM, Strain/Indicator: TA98, Metabolic Activation: NONE, Method: PREINCUBATION
[6] = Test System: AMES SALMONELLA TYPHIMURIUM, Strain/Indicator: TA100, Metabolic Activation: NONE, Method: PREINCUBATION

SMILES: CNC(=O)Oc1ccccc1OC(C)C
- mutagenic call (Test System: AMES SALMONELLA TYPHIMURIUM, Strain/Indicator: TA98, Metabolic Activation: HAMSTER, LIVER, S-9, AROCLOR 1254, Method: STANDARD PLATE): inactive; negative
- mutagenic call [1]: inactive; negative
- mutagenic call (Test System: AMES SALMONELLA TYPHIMURIUM, Strain/Indicator: TA98, Metabolic Activation: RAT, LIVER, S-9, AROCLOR 1254, Method: STANDARD PLATE): inactive; negative
- mutagenic call (Test System: AMES SALMONELLA TYPHIMURIUM, Strain/Indicator: TA100, Metabolic Activation: HAMSTER, LIVER, S-9, AROCLOR 1254, Method: STANDARD PLATE): inactive; negative
- mutagenic call (Test System: AMES SALMONELLA TYPHIMURIUM, Strain/Indicator: TA100, Metabolic Activation: NONE, Method: STANDARD PLATE): inactive; negative
- mutagenic call (Test System: AMES SALMONELLA TYPHIMURIUM, Strain/Indicator: TA100, Metabolic Activation: RAT, LIVER, S-9, AROCLOR 1254, Method: STANDARD PLATE): inactive; negative
- mutagenic call [2]: active; positive
- mutagenic call [3]: inactive; negative
- mutagenic call (Test System: AMES SALMONELLA TYPHIMURIUM, Strain/Indicator: TA1537, Metabolic Activation: RAT, LIVER, S-9, AROCLOR 1254, Method: STANDARD PLATE): inactive; negative
- mutagenic call (Test System: AMES SALMONELLA TYPHIMURIUM, Strain/Indicator: TA1538, Metabolic Activation: HAMSTER, LIVER, S-9, AROCLOR 1254, Method: STANDARD PLATE): inactive; negative
- mutagenic call (Test System: AMES SALMONELLA TYPHIMURIUM, Strain/Indicator: TA1538, Metabolic Activation: NONE, Method: STANDARD PLATE): inactive; negative
- mutagenic call (Test System: AMES SALMONELLA TYPHIMURIUM, Strain/Indicator: TA1538, Metabolic Activation: RAT, LIVER, S-9, AROCLOR 1254, Method: STANDARD PLATE): inactive; negative
- mutagenic call (Test System: CHINESE HAMSTER V-79, Strain/Indicator: V-79(HPRT)/6-THIOGUANINE, Metabolic Activation: NONE): inactive; negative
- mutagenic call (Test System: MOUSE LYMPHOMA, Strain/Indicator: L5178Y (TK+/TK-), Metabolic Activation: NONE, Method: SUSPENSION/PLATE): active; positive. reevaluation of results: positive
- mutagenic call [4]: active; positive. reevaluation of results: positive

SMILES: [Pb]
- mutagenic call (End Point: IN VIVO MICRONUCLEUS, Test System: PERIPHERAL BLOOD LYMPHOCYTES, Species: HUMAN, Strain/Sex: MALE, Route: PROBABLY INHALATION, Method: 72 HR CONTINUOUS TREATMENT): active; positive
- mutagenic call [1]: inactive; negative
- mutagenic call (Test System: AMES SALMONELLA TYPHIMURIUM, Strain/Indicator: TA98, Metabolic Activation: RAT, LIVER, S-9, PHENOBARBITAL, Method: STANDARD PLATE): inactive; negative
- mutagenic call (Test System: AMES SALMONELLA TYPHIMURIUM, Strain/Indicator: TA102, Metabolic Activation: NONE, Method: STANDARD PLATE): active; positive
- mutagenic call (Test System: AMES SALMONELLA TYPHIMURIUM, Strain/Indicator: TA102, Metabolic Activation: RAT, LIVER, S-9, PHENOBARBITAL, Method: STANDARD PLATE): inactive; negative
- mutagenic call [2]: inactive; negative
- mutagenic call (Test System: AMES SALMONELLA TYPHIMURIUM, Strain/Indicator: TA1535, Metabolic Activation: RAT, LIVER, S-9, PHENOBARBITAL, Method: STANDARD PLATE): inactive; negative
- mutagenic call [3]: inactive; negative
- mutagenic call (Test System: AMES SALMONELLA TYPHIMURIUM, Strain/Indicator: TA1537, Metabolic Activation: RAT, LIVER, S-9, PHENOBARBITAL, Method: STANDARD PLATE): inactive; negative

SMILES: CN1C[C@@H](O)c2cc3c(c4c2[C@H]1Cc1ccccc1-4)OCO3
- mutagenic call (Test System: AMES SALMONELLA TYPHIMURIUM, Strain/Indicator: TA98, Metabolic Activation: RAT, LIVER, S-9, PHENOBARBITAL AND BETA-NAPHTHOFLAVONE, Method: PREINCUBATION): active; positive
- mutagenic call (Test System: AMES SALMONELLA TYPHIMURIUM, Strain/Indicator: TA100, Metabolic Activation: RAT, LIVER, S-9, PHENOBARBITAL AND BETA-NAPHTHOFLAVONE, Method: PREINCUBATION): active; positive

SMILES: O=C(O)c1cccnc1Nc1cccc(C(F)(F)F)c1
- mutagenic call [2]: inactive; negative

SMILES: O=S(=O)(O)c1ccc2cc(Oc3ccc4cc(S(=O)(=O)O)ccc4c3)ccc2c1
- mutagenic call [5]: inactive; negative
- mutagenic call (Test System: AMES SALMONELLA TYPHIMURIUM, Strain/Indicator: TA98, Metabolic Activation: RAT, LIVER, S-9, PHENOBARBITAL, Method: PREINCUBATION): inactive; negative
- mutagenic call [6]: inactive; negative
- mutagenic call (Test System: AMES SALMONELLA TYPHIMURIUM, Strain/Indicator: TA100, Metabolic Activation: RAT, LIVER, S-9, PHENOBARBITAL, Method: PREINCUBATION): inactive; negative

SMILES: [O]=[Mo](=[O])=[O]
- mutagenic call (Test System: AMES SALMONELLA TYPHIMURIUM, Strain/Indicator: TA97, Metabolic Activation: HAMSTER, LIVER, S-9, AROCLOR 1254 (10%), Method: PREINCUBATION): inactive; negative
- mutagenic call (Test System: AMES SALMONELLA TYPHIMURIUM, Strain/Indicator: TA97, Metabolic Activation: HAMSTER, LIVER, S-9, AROCLOR 1254 (30%), Method: PREINCUBATION): inactive; negative
- mutagenic call (Test System: AMES SALMONELLA TYPHIMURIUM, Strain/Indicator: TA97, Metabolic Activation: NONE, Method: PREINCUBATION): inactive; negative
- mutagenic call (Test System: AMES SALMONELLA TYPHIMURIUM, Strain/Indicator: TA97, Metabolic Activation: RAT, LIVER, S-9, AROCLOR 1254 (10%), Method: PREINCUBATION): inactive; negative
- mutagenic call (Test System: AMES SALMONELLA TYPHIMURIUM, Strain/Indicator: TA97, Metabolic Activation: RAT, LIVER, S-9, AROCLOR 1254 (30%), Method: PREINCUBATION): inactive; negative
- mutagenic call (Test System: AMES SALMONELLA TYPHIMURIUM, Strain/Indicator: TA98, Metabolic Activation: HAMSTER, LIVER, S-9, AROCLOR 1254 (10 OR 30%), Method: PREINCUBATION): inactive; negative
- mutagenic call [5]: inactive; negative
- mutagenic call (Test System: AMES SALMONELLA TYPHIMURIUM, Strain/Indicator: TA98, Metabolic Activation: RAT, LIVER, S-9, AROCLOR 1254 (10 OR 30%), Method: PREINCUBATION): inactive; negative
- mutagenic call (Test System: AMES SALMONELLA TYPHIMURIUM, Strain/Indicator: TA100, Metabolic Activation: HAMSTER, LIVER, S-9, AROCLOR 1254 (10% OR 30%), Method: PREINCUBATION): inactive; negative
- mutagenic call [6]: inactive; negative
- mutagenic call (Test System: AMES SALMONELLA TYPHIMURIUM, Strain/Indicator: TA100, Metabolic Activation: RAT, LIVER, S-9, AROCLOR 1254 (10% OR 30%), Method: PREINCUBATION): inactive; negative
- mutagenic call (Test System: AMES SALMONELLA TYPHIMURIUM, Strain/Indicator: TA1535, Metabolic Activation: HAMSTER, LIVER, S-9, AROCLOR 1254 (10%), Method: PREINCUBATION): inactive; negative
- mutagenic call (Test System: AMES SALMONELLA TYPHIMURIUM, Strain/Indicator: TA1535, Metabolic Activation: HAMSTER, LIVER, S-9, AROCLOR 1254 (30%), Method: PREINCUBATION): inactive; negative
- mutagenic call (Test System: AMES SALMONELLA TYPHIMURIUM, Strain/Indicator: TA1535, Metabolic Activation: NONE, Method: PREINCUBATION): inactive; negative
- mutagenic call (Test System: AMES SALMONELLA TYPHIMURIUM, Strain/Indicator: TA1535, Metabolic Activation: RAT, LIVER, S-9, AROCLOR 1254 (10%), Method: PREINCUBATION): inactive; negative
- mutagenic call (Test System: AMES SALMONELLA TYPHIMURIUM, Strain/Indicator: TA1535, Metabolic Activation: RAT, LIVER, S-9, AROCLOR 1254 (30%), Method: PREINCUBATION): inactive; negative
- mutagenic call (Test System: AMES SALMONELLA TYPHIMURIUM, Strain/Indicator: TA1537, Metabolic Activation: HAMSTER, LIVER, S-9, AROCLOR 1254 (30%), Method: PREINCUBATION): inactive; negative
- mutagenic call (Test System: AMES SALMONELLA TYPHIMURIUM, Strain/Indicator: TA1537, Metabolic Activation: NONE, Method: PREINCUBATION): inactive; negative
- mutagenic call (Test System: AMES SALMONELLA TYPHIMURIUM, Strain/Indicator: TA1537, Metabolic Activation: RAT, LIVER, S-9, AROCLOR 1254 (30%), Method: PREINCUBATION): inactive; negative
- mutagenic call [4]: active; positive. reevaluation of results: positive
- mutagenic call (Test System: Mouse lymphoma, Strain/Indicator: L5178Y (tk+/tk-), Metabolic Activation: None, Method: Suspension/plate): inactive; inconclusive (previous evaluation negative)
